Here are results for 82 compounds from ChEMBL document CHEMBL3988442, “University of Dundee, Small-Polar-MMV Screening Library” (2021).

The nature of test [1]: microbe, parasite or virus in culture. The following applies: Mycobacterium tuberculosis, 96 h, read-out: pIC50 (converted).
The nature of test [2]: microbe, parasite or virus in culture. The note with it: Mycobacterium tuberculosis, 72 h, read-out: pIC50 (converted).

SMILES strings stand for the structures.

Consider `CSCc1ccc(C(=O)NCCCNc2ccc(C(F)(F)F)cn2)cc1`, for which the IC50 in test [1] and in test [2] was > 50.1 µM in each case.

Consider `COC(=O)CNC(=O)c1nc(Br)sc1C(C)C`, for which the IC50 in test [1] and in test [2] was > 50.1 µM each time.

Regarding `c1ccc2[nH]c(NCC3CCCO3)nc2c1` (centres undefined), the IC50 was 166 µM in test [1] and > 501 µM in test [2].

Turning to `O=c1c2cc3c(cc2nnn1Cc1ccccc1Cl)OCCO3`, the IC50 in test [1] and in test [2] was > 50.1 µM each time.

As to `CCn1ccc(C(=O)NCc2ccco2)n1`, the IC50 is > 501 µM in test [1] and 232 µM in test [2].

As for `CC1(C)CN(C(=O)c2cc(Br)c[nH]2)CCO1`, the IC50 was 290 µM in test [1] and 136 µM in test [2].

Turning to `CC(C)C(=O)N1CCC(C(=O)c2ccc(O)cc2)CC1`, the IC50 is > 501 µM in test [1] and 5.6 µM in test [2].

With `CCc1ccccc1CN1C(=O)CCC1=O`, the IC50 in test [1] and in test [2] was > 501 µM each time.

For the compound `CC(C)CCC(=O)N1CCN(CC(O)C(F)(F)F)CC1` (centres undefined), the IC50 in test [1] was 30.2 µM; in test [2], 42 µM.

Regarding `CC(C)CC(O)C(=O)N1CCN(c2cccnc2)CC1` (centres undefined), the IC50 is > 501 µM in test [1] and 118 µM in test [2].

As to `O=C1C=CC(=O)N1Cc1ccc(Cl)cc1`, the IC50 in test [1] is 174 µM; in test [2], 129 µM.

With `COC(=O)COc1cc(NCc2c(C)noc2C)c(Cl)cc1C`, the IC50 is 35 µM in test [1] and 32.1 µM in test [2].

Take `Cc1cccc(-c2nnc(C(C)N3CCn4c(C)nnc4C3)o2)c1` (centres undefined): the IC50 in test [1] and in test [2] was > 50.1 µM throughout.

Take `COc1ccc(-c2noc(C3(O)CCCC3)n2)cn1`: the IC50 was 104 µM in test [1] and 282 µM in test [2].

As for `COc1cc(F)cc(NCC(=O)NCc2ccco2)c1`, the IC50 in test [1] is 32.7 µM; in test [2], 35 µM.

As for `O=C(Cn1ccc(C(F)(F)F)n1)NCc1ccco1`, the IC50 in test [1] and in test [2] was > 501 µM in each case.

On to `CN(Cc1ccc(O)cc1)C(=O)c1cc(Cl)c[nH]1`, for which the results for the IC50 in test [1] and in test [2] were 187 µM and 173 µM, respectively.

`Cn1ncc2c(N3CCCN4CCC[C@H]4C3)nc(C(C)(C)C)nc21`: the IC50 in test [1] is 47 µM; in test [2], > 50.1 µM.

Take `CCOCCN1CCN(Cc2nnc(OCC)s2)CC1`: the IC50 in test [1] and in test [2] was > 501 µM throughout.

Take `CN(Cc1nc(CC2CC2)no1)CC1Cc2ccccc2O1` (centres undefined): the IC50 in test [1] is 22.8 µM; in test [2], 38 µM.

For the compound `COCCC(C)Nc1c[nH]nc1-c1ccccn1` (centres undefined), the IC50 was > 501 µM in test [1] and 201 µM in test [2].

As to `COc1ccc(CCN2CCCNCC2)cc1`, the results for the IC50 in test [1] and in test [2] were 159 µM and 73.3 µM, respectively.

Turning to `Cc1cc(C)nc(N2CCCC(c3cccc(-n4ccnc4)n3)C2)n1` (centres undefined), the IC50 in test [1] is 28.7 µM; in test [2], 26.9 µM.

With `CSC1=Nc2c(cnn2-c2ccc(C)cc2)C2=NCCCN12`, the IC50 in test [1] was > 50.1 µM; in test [2] it was 0.957 µM.

For the compound `CC(C)n1cnc(C2CN(C)c3ccc(C(=O)NCC4CC4)cc32)n1` (centres undefined), the IC50 in test [1] and in test [2] was > 50.1 µM throughout.

Regarding `COc1c(C)cnc(CSc2nnc(N)s2)c1C`, the IC50 in test [1] and in test [2] was > 50.1 µM in each case.

Regarding `Cc1ccc(S(=O)(=O)N2CCC[C@@H](N)C2)c(C)c1`, the IC50 in test [1] was 276 µM; in test [2], 219 µM.

Consider `CCCOc1cccc(NC(=O)C(C)n2cncn2)c1` (centres undefined), for which the IC50 is 331 µM in test [1] and 370 µM in test [2].

For the compound `Fc1cnc(N2CCOCC3(CCCN(c4cnccn4)C3)C2)nc1` (centres undefined), the IC50 in test [1] and in test [2] was > 50.1 µM in each case.

For `CCN1CCN(S(=O)(=O)c2c[nH]c(C(C)C)n2)c2ccccc21`, the IC50 in test [1] and in test [2] was > 50.1 µM in each case.

Consider `O=S(=O)(NCCNc1ccc(-n2cccc2)nn1)c1cccs1`, for which the values for the IC50 in test [1] and in test [2] were 13.4 µM and 14 µM, respectively.

For the compound `O=C(NC1CC1)N1CCN(c2ncccc2Cl)CC1`, the IC50 in test [1] and in test [2] was > 501 µM throughout.

Consider `CC(C)(C)OC(=O)N1CCC(n2cc(N)cn2)CC1`, for which the IC50 in test [1] is 287 µM; in test [2] it was 202 µM.

For `Cn1cc(Br)cc1C(=O)NCC1CCCO1` (centres undefined), the IC50 in test [1] is > 501 µM; in test [2], 225 µM.

As to `COc1ccc(CCN)c(OC)c1OC`, the IC50 was 55.6 µM in test [1] and 36.1 µM in test [2].

`CNc1cccnc1N1CCCC1`: the results for the IC50 in test [1] and in test [2] were 41.3 µM and 22 µM, respectively.

Consider `Fc1ccc(N2CCCN(c3ccc(Cn4ccnc4)cn3)CC2)cc1`, for which the IC50 in test [1] was 43.5 µM; in test [2] it was 29.6 µM.

In the case of `CC(CCc1ccco1)NC(=O)Nc1cc(C(F)(F)F)c[nH]c1=O` (centres undefined), the IC50 in test [1] is 43.3 µM; in test [2], 15.9 µM.

For `COc1cccc(OCC(=O)NCC2CCCO2)c1` (centres undefined), the IC50 in test [1] is 145 µM; in test [2] it was 194 µM.

As to `CN(CCn1cccn1)c1cc(Br)ccn1`, the IC50 is 366 µM in test [1] and 190 µM in test [2].

Take `COc1cccc(NC(CN)c2ccccc2)c1` (centres undefined): the IC50 in test [1] is > 501 µM; in test [2], 187 µM.

On to `CC(C)Oc1ccc(CSc2nnc(CN3CCCC3=O)o2)cc1`, for which the IC50 is 14.5 µM in test [1] and 43.5 µM in test [2].

Regarding `COCCCN(C)S(=O)(=O)c1ccc(Br)cn1`, the IC50 in test [1] is 206 µM; in test [2], 278 µM.

On to `c1cncc(-c2nc(SCC3CCCCO3)n[nH]2)c1` (centres undefined), for which the results for the IC50 in test [1] and in test [2] were > 501 µM and 229 µM, respectively.

Regarding `CSCCC(CO)NC(=O)c1occc1C(C)C` (centres undefined), the IC50 in test [1] was > 501 µM; in test [2] it was 258 µM.

Consider `Cc1cc(OC(F)F)c(C2NC(=O)CN2C)cc1C` (centres undefined), for which the IC50 in test [1] and in test [2] was > 501 µM in each case.

Turning to `FC(F)(F)c1cccc(NCc2cccnc2)n1`, the IC50 was 275 µM in test [1] and 85.5 µM in test [2].

In the case of `Cc1ccccc1-c1nnn(CC(O)CC(F)(F)F)n1` (centres undefined), the IC50 in test [1] is 126 µM; in test [2], 102 µM.

Take `COc1cc2c(cc1CNC(Cc1cccs1)c1nccs1)OCO2` (centres undefined): the IC50 in test [1] is 17.3 µM; in test [2], > 50.1 µM.

For the compound `CCC(C)c1cc(C(=O)Nc2ncccc2O)on1` (centres undefined), the IC50 in test [1] was 268 µM; in test [2] it was 178 µM.

For `COc1ccc(Cl)c(S(=O)(=O)NCCC(C)N)c1` (centres undefined), the results for the IC50 in test [1] and in test [2] were 187 µM and 116 µM, respectively.

`CC(C)CNc1cccc(-n2cnnn2)c1`: the IC50 in test [1] is 247 µM; in test [2], 274 µM.

For the compound `Cc1oc(C)c(C(=O)NCC(=O)N2CCCC2)c1C`, the IC50 in test [1] and in test [2] was > 501 µM in each case.

Turning to `NC(=O)c1ccc(-c2nc(C3CCCC3)no2)o1`, the IC50 was 228 µM in test [1] and 338 µM in test [2].

Turning to `O=C(c1cnc(C2CC2)nc1)N1CCCC(c2nccs2)C1` (centres undefined), the IC50 was 6.43 µM in test [1] and 8.4 µM in test [2].

Turning to `NCc1noc(-c2cccc(Br)c2)n1`, the IC50 was > 501 µM in test [1] and 127 µM in test [2].

Regarding `Cc1cc(N2CCNCC2)nc2ccccc12`, the IC50 in test [1] was 93.7 µM; in test [2], 140 µM.

On to `CC1CCN(C(CN)c2cccs2)CC1` (centres undefined), for which the figures for the IC50 in test [1] and in test [2] were 263 µM and 217 µM, respectively.

As for `NCc1nc(-c2ccc(Cl)cc2)c[nH]1`, the IC50 is 264 µM in test [1] and 128 µM in test [2].

On to `Cc1n[nH]cc1CNCC(c1ccsc1)N(C)C` (centres undefined), for which the IC50 in test [1] and in test [2] was > 50.1 µM throughout.

In the case of `Nc1cc(-c2c[nH]nc2C2CCCCN2C(=O)C2CCCC2)ccn1` (centres undefined), the IC50 in test [1] and in test [2] was > 50.1 µM in each case.

Take `Fc1ccccc1-c1nc(CNCCn2cccn2)cs1`: the IC50 in test [1] and in test [2] was > 50.1 µM in each case.

On to `O=C(c1cc(C2CCCC2)no1)N1CCCCC1`, for which the results for the IC50 in test [1] and in test [2] were 4.9 µM and 2.4 µM, respectively.

As for `CCCNc1nnc(SC2CCOC2)s1` (centres undefined), the IC50 in test [1] is 70.9 µM; in test [2], 259 µM.

In the case of `NC(=O)CC1CCCC1`, the IC50 in test [1] and in test [2] was > 501 µM in each case.

`COc1ccccc1OC(C)CN` (centres undefined): the IC50 in test [1] is 61.1 µM; in test [2], 20.2 µM.

For `CCC(=O)c1ccc(CN)cc1`, the IC50 was 264 µM in test [1] and > 501 µM in test [2].

For the compound `O=C(COC(=O)c1cccs1)c1ccc[nH]1`, the IC50 in test [1] is 211 µM; in test [2], 429 µM.

As for `Cc1cc(CNc2ccc(C(F)(F)F)cc2)no1`, the IC50 in test [1] was 15.6 µM; in test [2] it was 19.8 µM.

Take `CCNc1ncc(C(=O)N2CCCCC2)s1`: the IC50 in test [1] is > 501 µM; in test [2], 377 µM.

As to `COc1ccc(C(=O)NCCSc2cnn[nH]2)cc1F`, the IC50 in test [1] and in test [2] was > 501 µM in each case.

On to `Cc1nccc(C(=O)N2CCCN(Cc3cnn(C(C)C)c3)CC2)n1`, for which the IC50 in test [1] and in test [2] was > 50.1 µM in each case.

As for `Nc1ccc(CNc2nc(C3CC3)ns2)cn1`, the IC50 in test [1] and in test [2] was > 501 µM throughout.

Consider `CC1CCCCN1C(=O)COCc1nc(-c2ccncc2)no1` (centres undefined), for which the IC50 in test [1] and in test [2] was > 50.1 µM in each case.

`CC(N)c1noc(-c2ccc(Cl)cc2)n1` (centres undefined): the values for the IC50 in test [1] and in test [2] were 375 µM and 261 µM, respectively.

Regarding `O=C(O)c1cc(-c2ccoc2)cc(S(=O)(=O)NC2CC2)c1`, the IC50 in test [1] and in test [2] was > 50.1 µM each time.

Consider `CCNc1cc2c(nn1)CCN(C(=O)C1COc3ccccc3C1)C2` (centres undefined), for which the results for the IC50 in test [1] and in test [2] were 45 µM and 44.6 µM, respectively.

`O=C1COC2(CCN(c3ccccn3)CC2)CN1`: the IC50 in test [1] and in test [2] was > 50.1 µM in each case.

Regarding `COCc1nn(CCC2CCCC2)c(=O)o1`, the IC50 in test [1] is 86.6 µM; in test [2] it was 68.2 µM.

Turning to `CC(C)c1cc(CN2CCNCC2)no1`, the IC50 in test [1] was > 50.1 µM; in test [2], 32.6 µM.

`CCNC(=O)CN(CC)S(=O)(=O)c1ccc(C)cc1`: the results for the IC50 in test [1] and in test [2] were > 501 µM and 295 µM, respectively.

For `CS(=O)(=O)CCC(=O)N1C[C@@H]2CC[C@H](C1)N(Cc1ccccc1)C2=O`, the IC50 in test [1] and in test [2] was > 50.1 µM in each case.
